In publication PMC6598440 (Clinical chemistry, 2016):
Like-named read-outs stand apart in the source and are kept apart here.

Columns and labels:
[1] = cited from earlier work
[2] = for degradation: whole dried blood on DMPK-C cards and VAMS devices, 4 °C, 30 days
[3] = Comparison of plasma and whole blood hydroxyurea concentrations; assay type: in vivo, patients with SCA

What does the source list for `NC(=O)NO` [hydroxyurea, Hydroxyurea]?
typical peak serum or plasma hydroxyurea concentrations ([1]; children with SCA, measured by colorimetry): 15 to 45 µg/mL; elimination [1]: primarily by renal clearance; half-life [1]: 1 to 3 h; time drug is detectable after the daily dose ([1]; most patients): 6 to 8 h; time of peak serum concentrations after administration ([1]; oral, once daily): 15 to 60 min; oral bioavailability ([1]; oral): excellent; % of the target concentration measured in freshly prepared samples ([2]; DMPK-C cards, stored at 4 °C, 0.5 μg/mL, T = 7 days): 90.17 ± 0.44%; % of the target concentration measured in freshly prepared samples ([2]; DMPK-C cards, stored at 4 °C, 0.5 μg/mL, T = 14 days): 81.75 ± 3.85%; % of the target concentration measured in freshly prepared samples ([2]; DMPK-C cards, stored at 4 °C, 0.5 μg/mL, T = 30 days): 75.85 ± 4.08%; % of the target concentration measured in freshly prepared samples ([2]; DMPK-C cards, stored at 4 °C, 60.0 μg/mL, T = 7 days): 65.37 ± 1.07%; % of the target concentration measured in freshly prepared samples ([2]; DMPK-C cards, stored at 4 °C, 60.0 μg/mL, T = 14 days): 54.13 ± 3.39%; % of the target concentration measured in freshly prepared samples ([2]; DMPK-C cards, stored at 4 °C, 60.0 μg/mL, T = 30 days): 48.58 ± 0.23%; % of the target concentration measured in freshly prepared samples ([2]; DMPK-C cards, stored at −20 °C, 0.5 μg/mL, T = 7 days): 95.08 ± 0.01%; % of the target concentration measured in freshly prepared samples ([2]; DMPK-C cards, stored at −20 °C, 0.5 μg/mL, T = 14 days): 90.56 ± 13.29%; % of the target concentration measured in freshly prepared samples ([2]; DMPK-C cards, stored at −20 °C, 0.5 μg/mL, T = 30 days): 96.07 ± 5.12%; % of the target concentration measured in freshly prepared samples ([2]; DMPK-C cards, stored at −20 °C, 60.0 μg/mL, T = 7 days): 90.88 ± 1.83%; % of the target concentration measured in freshly prepared samples ([2]; DMPK-C cards, stored at −20 °C, 60.0 μg/mL, T = 14 days): 92.99 ± 2.03%; % of the target concentration measured in freshly prepared samples ([2]; DMPK-C cards, stored at −20 °C, 60.0 μg/mL, T = 30 days): 93.07 ± 3.11%; % of the target concentration measured in freshly prepared samples ([2]; DMPK-C cards, stored at −80 °C, 0.5 μg/mL, T = 7 days): 102.14 ± 0.59%; % of the target concentration measured in freshly prepared samples ([2]; DMPK-C cards, stored at −80 °C, 0.5 μg/mL, T = 14 days): 97.41 ± 14.36%; % of the target concentration measured in freshly prepared samples ([2]; DMPK-C cards, stored at −80 °C, 0.5 μg/mL, T = 30 days): 99.98 ± 3.81%; % of the target concentration measured in freshly prepared samples ([2]; DMPK-C cards, stored at −80 °C, 60.0 μg/mL, T = 7 days): 93.69 ± 3.64%; % of the target concentration measured in freshly prepared samples ([2]; DMPK-C cards, stored at −80 °C, 60.0 μg/mL, T = 14 days): 94.22 ± 2.34%; % of the target concentration measured in freshly prepared samples ([2]; DMPK-C cards, stored at −80 °C, 60.0 μg/mL, T = 30 days): 100.45 ± 1.09%; % of the target concentration measured in freshly prepared samples ([2]; VAMS devices, stored at 4 °C, 0.5 μg/mL, T = 7 days): 87.90 ± 10.32%; % of the target concentration measured in freshly prepared samples ([2]; VAMS devices, stored at 4 °C, 0.5 μg/mL, T = 14 days): 91.86 ± 7.97%; % of the target concentration measured in freshly prepared samples ([2]; VAMS devices, stored at 4 °C, 0.5 μg/mL, T = 30 days): 75.11 ± 0.56%; % of the target concentration measured in freshly prepared samples ([2]; VAMS devices, stored at 4 °C, 60.0 μg/mL, T = 7 days): 64.19 ± 1.28%; % of the target concentration measured in freshly prepared samples ([2]; VAMS devices, stored at 4 °C, 60.0 μg/mL, T = 14 days): 51.98 ± 0.46%; % of the target concentration measured in freshly prepared samples ([2]; VAMS devices, stored at 4 °C, 60.0 μg/mL, T = 30 days): 46.14 ± 0.98%; % of the target concentration measured in freshly prepared samples ([2]; VAMS devices, stored at −20 °C, 0.5 μg/mL, T = 7 days): 106.52 ± 12.11%; % of the target concentration measured in freshly prepared samples ([2]; VAMS devices, stored at −20 °C, 0.5 μg/mL, T = 14 days): 103.15 ± 2.56%; % of the target concentration measured in freshly prepared samples ([2]; VAMS devices, stored at −20 °C, 0.5 μg/mL, T = 30 days): 95.37 ± 6.01%; % of the target concentration measured in freshly prepared samples ([2]; VAMS devices, stored at −20 °C, 60.0 μg/mL, T = 7 days): 83.69 ± 1.28%; % of the target concentration measured in freshly prepared samples ([2]; VAMS devices, stored at −20 °C, 60.0 μg/mL, T = 14 days): 82.55 ± 1.65%; % of the target concentration measured in freshly prepared samples ([2]; VAMS devices, stored at −20 °C, 60.0 μg/mL, T = 30 days): 82.48 ± 0.78%; % of the target concentration measured in freshly prepared samples ([2]; VAMS devices, stored at −80 °C, 0.5 μg/mL, T = 7 days): 101.92 ± 10.34%; % of the target concentration measured in freshly prepared samples ([2]; VAMS devices, stored at −80 °C, 0.5 μg/mL, T = 14 days): 103.58 ± 3.20%; % of the target concentration measured in freshly prepared samples ([2]; VAMS devices, stored at −80 °C, 0.5 μg/mL, T = 30 days): 106.00 ± 8.10%; % of the target concentration measured in freshly prepared samples ([2]; VAMS devices, stored at −80 °C, 60.0 μg/mL, T = 7 days): 86.62 ± 1.86%; % of the target concentration measured in freshly prepared samples ([2]; VAMS devices, stored at −80 °C, 60.0 μg/mL, T = 14 days): 90.21 ± 0.94%; % of the target concentration measured in freshly prepared samples ([2]; VAMS devices, stored at −80 °C, 60.0 μg/mL, T = 30 days): 93.53 ± 0.68%; degradation ([2]; 0.5 μg/mL): 25%; degradation ([2]; 60 μg/mL): 52%; hydroxyurea concentrations in plasma and whole blood compared ([3]; patients with SCA treated with hydroxyurea, venipuncture or finger-prick sampling): comparable; plasma and whole blood hydroxyurea concentrations compared ([3]; preliminary data using an HPLC method): equivalent
